From patent publication US4868195A, “Novel enolamides, pharmaceutical compositions and methods of use thereof for activity as modulators of the arachidonic acid cascade” (Warner-Lambert Company, priority 1988, dated 1989) come the findings set out here.

The test deals with T1, human leukocyte 5-lipoxygenase (Homo sapiens, UniProt P09917).
T1 construct: endogenous in cells; host or cells: intact leukocytes isolated from human blood
T1 sequence (P09917 1-674): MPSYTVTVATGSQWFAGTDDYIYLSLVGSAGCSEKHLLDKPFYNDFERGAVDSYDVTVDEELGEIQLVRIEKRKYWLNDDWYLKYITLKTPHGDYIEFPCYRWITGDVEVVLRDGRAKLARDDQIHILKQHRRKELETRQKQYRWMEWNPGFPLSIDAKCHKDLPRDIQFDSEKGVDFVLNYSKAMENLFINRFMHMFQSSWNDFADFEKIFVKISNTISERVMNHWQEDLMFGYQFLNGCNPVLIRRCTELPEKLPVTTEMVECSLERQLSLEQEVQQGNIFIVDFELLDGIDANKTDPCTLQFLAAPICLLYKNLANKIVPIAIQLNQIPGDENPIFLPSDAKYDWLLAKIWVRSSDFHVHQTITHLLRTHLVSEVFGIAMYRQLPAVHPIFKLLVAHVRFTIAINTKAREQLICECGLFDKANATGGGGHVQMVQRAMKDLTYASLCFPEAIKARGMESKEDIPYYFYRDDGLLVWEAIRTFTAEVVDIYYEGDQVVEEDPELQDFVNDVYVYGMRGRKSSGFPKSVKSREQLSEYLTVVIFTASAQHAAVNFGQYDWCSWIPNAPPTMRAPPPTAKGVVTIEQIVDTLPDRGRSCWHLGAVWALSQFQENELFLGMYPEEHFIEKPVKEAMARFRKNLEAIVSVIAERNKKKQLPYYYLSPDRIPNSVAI
Nature of the test: 5-lipoxygenase inhibition in human leukocytes, 5-HETE formation (5LOA; methods 5LOA1 and 5LOA2). Format: cell-based. As to conditions: for IC50: 5-HETE formation, human leukocytes, read-out: Concentration (M) for 50.0 % Inhibition, IC (5LOA). An excerpt:
To Evaluate the Effect of Each Compounds as a 5-Lipoxygenase Inhibitor in Comparison to Standard Reference Agents in Human Leukocytes (5LOA1)
The purpose of this assay is to evaluate the activity of each compound as an inhibitor of human leukocyte 5-lipoxygenase.
Arachidonic acid and calcium ionophore A23187 are obtained from Sigma (St. Louis, MO). Silica gel plates, GF are obtained from Analtech (Newark, DE). Arachidonic acid, (1-^14 C) and 5-HETE (^3 H), 5 (S)-hydroxy-6-trans,8,11,14-cis eicosatetraenoic acid, are obtained from New England Nuclear (Boston, MA). Six percent Dextran-70 in 0.9% NaCl is obtained from Cutter Labs (Berkeley, CA).
Preparation of Leukocytes
Fresh blood from normal adult men who had not received any drugs for at least the previous five days is obtained by the Community Research Clinic (WL/PD) using venipuncture and collected into heparinized vacuotainer tubes. To every 100 ml of pooled blood is added 25 ml of dextran solution (6% dextran -70 in 0.9% sodium chloride containing 3% dextrose) and this is mixed gently in a plastic cylinder. The mixture is left to stand at room temperature for at least 90 minutes. The upper layer which is rich in leukocytes and platelets is then carefully decanted into 50 ml plastic tubes and centrifuged at about 100×g for eight minutes in an IEC centrifuge and rotor number 269 (about 600 rpm). The supernatant fluid is discarded and the pellet is resuspended in 10 ml of 0.87% ammonium chloride for exactly two minutes. This procedure is to lyse completely contaminating red blood cells. Leukocytes are then separated by centrifugation for ten minutes. The pellet is washed three times by suspension in 20 ml PBS (sodium chloride, 7.1 g; Na2 HPO4, 1.15 g; KH2 PO4, 0.2 g, and KCl, 0.2 g/L) and centrifuged as before. The final pellet is suspended in PBS containing 0.87 mM CaCl2. Viability of the cells is then checked using trypan blue exclusion method and is found to be over 90%.
5-Lipoxygenase Enzyme Assay
Leukocyte cells in suspension (0.98 ml) are incubated with or without test compounds for five minutes at 37° C. in a shaking water bath. At this time a 17 μl mixture is prepared per 1 ml of cell suspension: 100 mM arachidonic acid, 1 μl, 0.05 μCi ^14 C-arachidonic acid in 5 μl; 1 mM calcium ionophore A23187, 10 μl (1). This mixture is added and the incubation continued for five minutes. The reaction is stopped by adding four volumes of absolute ethanol and the mixture is kept in ice for 30 minutes. The floculated precipitate is separated by centrifugation at about 37,000×g for 20 minutes (Beckman Instruments rotor number 40). The alcohol extract is taken to dryness under a stream of nitrogen and the residue is dissolved in 100-200 μl absolute ethanol. At the time any turbidity is removed by centrifugation. An aliquot (25-50 μl) is applied onto 20×20 cm silica gel TLC plate and developed using the following solvent system: diethyl ether, petroleum ether (2040° C.), acetic acid (50:50:1 v/v). Zones of 1 cm apart are scraped from the TLC plate and transferred to mini-vials. Methanol (0.5 ml) is added to dissolve the radioactivity adsorbed to the silica gel and scintillation fluid (H. P., Beckman), 5 ml is then added and vials are counted in a liquid scintillation counter. A sample of ^3 H-5-HETE is applied and used for the identification of the formed 5-HETE.
Total radioactivity in the test as well as the control samples are normalized and the amount of 5-HETE present is calculated accordingly.
IC50 values are defined as the concentrations of test agents which caused a 50% inhibition of the formation of 5-HETE as compared to control and are determined by inspection of the concentration-response curves.
5-Lipoxygenase Assay Using Isolated Human Leukocytes (5LOA2)
The formation of 5-HETE in human leukocytes is considered a measure of 5-lipoxygenase activity. The protocol is described in the following. […]

Where “and” joins values, the source holds several entries; their conditions need not be identical. Equal entries are not always repeated.

Consider `O=C(Nc1ccc(CCc2ccc(Cl)cc2)cc1)C1CS(=O)(=O)c2ccccc2C1=O` (centres unmarked) [Example 54, N-[4-[2-(4-Chlorophenyl)ethyl]phenyl]-3,4-dihydro-4-oxo-2H-1-benzothiopyran-3-carboxamide, 1,1-dioxide], for which the IC50 came out at 5.25e-06 M. On the same count and under the same terms, the figure for `COc1ccc(CCc2ccc(NC(=O)c3sc4ccccc4c3O)cc2)cc1OC` [Example 143, Benzo[b]thiophene-2-carboxamide, N-[4-[2-(3,4-dimethoxphenyl)ethyl]phenyl]-3-hydroxy] is 5.22e-06 M.

On to `COc1ccc(CCc2ccc(NC(=O)C3CS(=O)(=O)c4ccccc4C3=O)cc2)cc1` (centres unmarked) [Example 41], for which the IC50 is 7e-06 M. `O=C(Nc1ccc(C=Cc2ccc(Cl)c(Cl)c2)cc1)C1=C(O)c2ccccc2S(=O)(=O)C1` [Example 74, 2H-1-Benzothiopyran-3-carboxamide, N-[4-[2-(3,4-dichlorophenyl)ethenyl]phenyl]-4-hydroxy-, 1,1-dioxide]: the IC50 was 9.3e-06 M. Same read-out and setting: to `O=C(Nc1ccc(CCc2ccc(-c3ccccc3)cc2)cc1)C1CS(=O)(=O)c2ccccc2C1=O` (centres unmarked) [Example 46, N-[4-[2-([1,1'-biphenyl]-4-yl)ethyl]phenyl]-3,4-dihydro-4-oxo-2H-1-benzothiopyran-3-carboxamide, 1,1-dioxide] belongs 1.1e-05 M; to `COc1ccc(CCc2ccc(NC(=O)C3CS(=O)(=O)c4ccccc4C3=O)cc2)cc1O` (centres unmarked) [Example 27, 3,4-Dihydro-N-[4-[2-(3-hydroxy-4-methoxyphenyl)ethyl]phenyl]-4-oxo-2H-1-benzothiopyran-3-carboxamide, 1,1-dioxide], 1.8e-05 M; to `O=C(Nc1ccc(Cc2ccc(Cl)c(Cl)c2)cc1)C1=C(O)c2ccccc2S(=O)(=O)C1` [Example 78, 2H-1-Benzothiopyran-3-carboxamide, N-[4-[(3,4-dichlorophenyl)methyl]phenyl]-4-hydroxy-, 1,1-dioxide], 1.06e-05 M. Regarding `O=C(Nc1ccc(CCc2c(F)c(F)c(F)c(F)c2F)cc1)C1=C(O)c2ccccc2S(=O)(=O)C1` [Example 64, N-[4-[2-(2,3,4,5,6-Pentafluorophenyl)ethyl]phenyl]-4-hydroxy-2H-1-benzothiopyran-3-carboxamide, 1,1-dioxide], the IC50 was determined as 1.19e-05 M. On the same count and under the same terms, the figure for `O=C(Nc1cccc(CCc2ccc(Cl)c(Cl)c2)c1)c1sc2ccccc2c1O` [Example 146, Benzo[b]thiophene-2-carboxamide, N-[3-[2-(3,4-dichlorophenyl)ethyl]phenyl]-3-hydroxy] is 3.96e-06 M. As to `O=C(Nc1cccc(CCc2ccc(Cl)c(Cl)c2)c1)C1=C(O)c2ccccc2S(=O)(=O)C1` [Example 76, 2H-1-Benzothiopyran-3-carboxamide, N-[3-[2-(3,4-dichlorophenyl)ethyl]phenyl]-4-hydroxy-, 1,1-dioxide], the IC50 is 1.1e-05 M. For `CCCCCCCCCCc1ccc(NC(=O)C2CS(=O)(=O)c3ccccc3C2=O)cc1` (centres unmarked) [Example 60, N-(4-Decylphenyl)-3,4-dihydro-4-oxo-2H-1-benzoothiopyran-3-carboxamide, 1,1-dioxide], the “% Inhibition (5LOA)” value runs as follows: (Concentration 1.00 E -5 M) 25.2%; (Concentration 2.00 E -5 M) 21.7%; (Concentration 5.00 E -6 M) 7.9%. In the case of `O=C(Nc1ccc(CCCc2ccc(Cl)c(Cl)c2)cc1)C1=C(O)c2ccccc2S(=O)(=O)C1` [Example 79, 2H-1-Benzothiopyran-3-carboxamide, N-[4-[3-(3,4-dichlorphenyl)propyl]phenyl]-4-hydroxy-, 1,1-dioxide], the IC50 turned out to be 9.2e-06 M.

In the case of `O=C(Nc1ccc(C=Cc2ccc([N+](=O)[O-])cc2)cc1)C1CS(=O)(=O)c2ccccc2C1=O` (centres unmarked) [Example 67, 2H-1-Benzothiopyran-3-carboxamide, 3,4-dihydro-N-[4-[2-(4-nitrophenyl)ethenyl]phenyl]-4-oxo-, 1,1-dixide], the IC50 is 1.17e-05 M. In the case of `Cc1ccc(CCc2ccc(NC(=O)C3CS(=O)(=O)c4ccccc4C3=O)cc2)cc1C` (centres unmarked) [Example 53, N-[4-[2-(3,4-Dimethylphenyl)ethyl]phenyl]-3,4-dihydro-4-oxo-2H-1-benzothiopyran-3-carboxamide, 1,1-dioxide], the IC50 came to 3.8e-06 M. Regarding `O=C(Nc1ccc(CCc2cccc3ccccc23)cc1)C1=C(O)c2ccccc2S(=O)(=O)C1` [Example 73, 2H-1-Benzothiopyran-3-carboxamide, 4-hydroxy-N-[4-[2-(1-naphthalenyl)ethyl]phenyl], 1,1-dioxide], the IC50 was 4.09e-06 M and 8.2e-06 M. Still for that read-out and setting: the figure for `CCCCOc1ccc(CCc2ccc(NC(=O)C3CS(=O)(=O)c4ccccc4C3=O)cc2)cc1` (centres unmarked) [Example 48] is 1.59e-05 M and 1.91e-05 M. In the case of `O=C(Nc1ccc(CCc2ccc3ccccc3c2)cc1)C1=C(O)c2ccccc2S(=O)(=O)C1` [Example 51, 4-Hydroxy-N-[4-[2-(2-naphthalenyl)ethyl]phenyl]-2H-1-benzothiopyran-3-carboxamide, 1,1-dioxide], the IC50 amounted to 2.12e-06 M. Regarding `O=C(Nc1ccccc1CCCc1ccc(Cl)c(Cl)c1)C1=C(O)c2ccccc2S(=O)(=O)C1` [Example 80, 2H-1-Benzothiopyran-3-carboxamide, N-[2-[3-(3,4-dichlorophenyl)propyl]phenyl]-4-hydroxy-, 1,1-dioxide], the IC50 is 1.01e-05 M. In the case of `COc1ccc(CCc2ccc(NC(=O)C3=C(O)c4ccccc4S(=O)(=O)C3)cc2)cc1OC` [Example 18, N-[4-[2-(3,4-Dimethoxyphenyl)ethyl]phenyl]-4-hydroxy-2H-1-benzothiopyran-3-carboxamide, 1,1-dioxide], the IC50 is 1.35e-05 M. Consider `O=C(Nc1ccc(CCc2ccccc2)cc1)C1CS(=O)(=O)c2ccccc2C1=O` (centres unmarked) [Example 16, 3,4-Dihydro-4-oxo-N-[(4-(2-phenyl)ethyl]-phenyl]-2H-1-benzothiopyran-3-carboxamide, 1,1-dioxide], for which the IC50 worked out at 1.77e-05 M.

Take `COc1cc(CCc2ccc(NC(=O)C(=O)c3sc4ccccc4c3O)cc2)ccc1O` [Example 142, Benzo[b]thiophene-2-acetamide, 3-hydroxy-N-[4-[2-(4-hydroxy-3-methoxyphenyl)ethyl]phenyl]-α-oxo-]: the IC50 stood at 6e-06 M.
